The values that follow come from PMC7774088 (ACS Omega, 2020).

The target in assay [1] is T1, Stp1 (Staphylococcus aureus, UniProt A0A0H2XF73).
T1 sequence (A0A0H2XF73 1-247): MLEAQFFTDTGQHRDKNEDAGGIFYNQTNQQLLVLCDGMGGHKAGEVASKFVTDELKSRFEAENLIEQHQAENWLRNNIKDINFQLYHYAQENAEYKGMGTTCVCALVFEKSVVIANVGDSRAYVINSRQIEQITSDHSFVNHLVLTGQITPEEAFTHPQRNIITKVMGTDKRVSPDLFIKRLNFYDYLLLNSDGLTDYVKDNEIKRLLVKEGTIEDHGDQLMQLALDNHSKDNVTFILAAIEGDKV
Briefly: fluorescence quenching. The format is binding.

The target in assay [2] is T1, Stp1. Briefly: pNPP phosphatase assay, absorbance […] nm. The format is biochemical. The following applies: read-out: % inhibition at 32 μg/mL.
The target in assay [3] is Stp1 (Staphylococcus aureus, UniProt A0A0H2XF73, F179A). In words: biochemical.
Assay [4] concerns the target Stp1 (Staphylococcus aureus, UniProt A0A0H2XF73, Y199A). In words: biochemical.
For assay [5], the target named is Stp1 (Staphylococcus aureus, UniProt A0A0H2XF73, P152A). In words: biochemical.
Assay [6] deals with Stp1 (Staphylococcus aureus, UniProt A0A0H2XF73, I164A). Briefly: biochemical.

Some results are limits rather than exact numbers.

With `O=C(O[C@@H]1O[C@@H]2COC(=O)c3cc(O)c(O)c(O)c3-c3c(cc(O)c(O)c3O)C(=O)O[C@H]([C@H]1O)[C@@H]2O)c1cc(O)c(O)c(O)c1` [corilagin], the Kd at Stp1 [1] is 1940 nM; on Stp1 [3], 2560 nM; on Stp1 [4], 2870 nM; at Stp1 [5], 7250 nM; at Stp1 [6], 8850 nM. For the same compound, at Stp1 [2], the inhibition at 32 µg/mL was more than 90%.

Usually Kd stands for the equilibrium constant for the complex coming apart. Read a low Kd as higher affinity.
